Measurements as given in patent publication US20240226069A1, “VAFIDEMSTAT FOR USE IN TREATING AUTISM SPECTRUM DISORDERS” (ORYZON GENOMICS, S.A., priority 2019, published 2024).

Tested on: ASD patients
Experiment: Phase IIa clinical trial (REIMAGINE), ASD cohort treated with vafidemstat for 8 weeks
Type: in vivo, human
Conditions: 1.2 mg/day oral
Text: As part of a Phase II a clinical trial (REIMAGINE trial, EudraCT number 2018-002140-88) to evaluate the safety, tolerability and efficacy of vafidemstat to treat aggression in adult population in patients with different CNS disorders, a cohort of ASD patients was recruited and treated with vafidemstat for 8 weeks. A summary of the protocol of this clinical trial and results obtained in the ASD cohort are provided below.
Reimagine is a unicenter, open-label, 1-arm, 8-week clinical study to evaluate the efficacy, safety and tolerability of vafidemstat in aggression in adult population with ASD, ADHD and BPD.
Main objective of the trial: To evaluate the safety and tolerability of vafidemstat in adult population with ASD ADHD and BPD.
Secondary objectives of the trial: To investigate the efficacy of vafidemstat in aggression in adult population with ASD ADHD and BPD.
Main inclusion criteria: • age 18-85 • current diagnosis for ASD, ADHD or BPD according to DSM-5 criteria • significant or persistent agitation or aggression that was disruptive to patient's daily living or put the patient in harm's way for at least 3 days per week for at least 4 weeks prior to screening visit
Treatment: All patients received vafidemstat (as free base) at a dose of 1.2 mg/day, administered orally as a single capsule, in a 5 days on/2 days off schedule, during 8 weeks.
Six ASD patients were recruited, but there was one drop-out, and therefore the results as described herein correspond to the 5 ASD subjects eligible for analysis. A summary of the patients recruited in this ASD cohort (demographic data at baseline) can be found in Table 1.
Evaluation of the effect of treatment with vafidemstat on aggression was performed using the NPI A/A as well as the CGI-I and CGI-S scales. The NPI A/A subscale is based on the NPI and consists of the 4 items in the NPI related to aggression/agitation, namely: agitation/aggression, disinhibition, irritability and aberrant motor disturbance. The severity of each of the 4 items in the NPI A/A scale is rated from 1 to 3 (1=mild, 2=moderate, 3=severe) and the NPI A/A score is calculated as the sum of the scores for all 4 items. CGI values reflect clinician's ratings of patient's aggression severity (CGI-S scale) and improvement in aggression from the initiation (baseline) of the treatment (CGI-I scale). In the CGI-I scale, change from initiation of treatment is rated using a seven-point scale, where 1=very much improved since initiation of treatment, 7=very much worse since initiation of treatment, and 4=no change from baseline. In the CGI-S scale, illness/condition severity is rated using a seven-point scale, the higher the score, the more severe the illness/condition, with 1=normal, not at all ill and 7=among the most extremely ill patients.
In addition to assessing its effect on aggression, the effect of treatment with vafidemstat on ASD patients was also evaluated using the total NPI scale and the NPI non-aggression related combined score. The total NPI scale consists of 12 items relating to a variety of neuropsychiatric domains (namely: delusions, hallucinations, agitation/aggression, depression, anxiety, euphoria/elation, apathy/indifference, disinhibition, irritability, aberrant motor disturbance, nighttime behavior, and appetite/eating disorders) and was used to measure global functioning in ASD patients. The severity of each item in the NPI is rated from 1 to 3 (1=mild, 2=moderate, 3=severe) and the total NPI score is calculated as the sum of the scores for all 12 items. The NPI non-aggression related combined score is the NPI combined score for all other items in the NPI not related to aggression or agitation (8 items; namely: delusions, hallucinations, depression, anxiety, euphoria/elation, apathy/indifference, nighttime behavior, and appetite/eating disorders). […]

[1] = adult ASD patients, 5 days on/2 days off, 8 weeks

Nc1nnc(CN[C@@H]2C[C@H]2c2ccc(OCc3ccccc3)cc2)o1 [Vafidemstat, 5-((((1R,2S)-2-(4-(benzyloxy)phenyl)cyclopropyl)amino)methyl)-1,3,4-oxadiazol-2-amine]
total NPI score (12 items), visit 1 to visit 7 (5 ASD patients, baseline vs 2 months of treatment, p=0.0019 (FIG. 4)): statistically significant reduction
NPI non-aggression related combined score (8 items), visit 1 to visit 7 (5 ASD patients, baseline vs 2 months of treatment, p=0.0142 (FIG. 5)): statistically significant reduction
CGI-S value, visit 1 to visit 7 (5 ASD patients, baseline vs 8 weeks treatment, no paired test could be calculated (FIG. 3)): reduction
CGI-I value, visit 1 to visit 7 (5 ASD patients, baseline vs 8 weeks treatment, p=0.0019 (FIG. 2)): statistically significant reductions
NPI A/A (4-item agitation/aggression subscale) value, visit 1 to visit 7 (5 ASD patients, baseline vs 8 weeks treatment, p=0.0098 (FIG. 1)): statistically significant reductions
safety and tolerability [1]: safe and well tolerated, without significant adverse events
sedation [1]: No sedation
CGI-S score, visit 1 to visit 7, cohort with one additional patient (n=6 ASD patients, baseline vs 8 weeks treatment, p=0.0006 (FIG. 6)): statistically significant reduction
